# Measurements from patent US20100144779A1, “Marine Alkalod Makaluvamines and Derivatives Thereof” (THE UAB RESEARCH FOUNDATION, priority 2007, published 2010).
# Tested on: HCT-116 p53 −/−
# Assay: Cell cycle progression (propidium iodide, flow cytometry)
# Type: cell-based, human
# Conditions: 48 hr; for G1 / G2/M / S: HCT-116 p53 −/−
# Protocol: To determination of the effects of the disclosed compounds on the cell cycle, 2-3×10^5 cells were exposed to the test compounds (0-5 μM) and incubated for 48 hr prior to analysis (Table 6). Cells were trypsinized, washed with PBS and fixed in 1.5 mL 95% ethanol at 4° C. overnight, followed by incubation with RNAse and staining with propidium iodide (Sigma). The DNA content was determined by flow cytometry.
smiles,measurement,setting,value
O=C(O)C(F)(F)F.O=C1C(NCc2ccc(F)cc2)=CC2=NCCc3c[nH]c1c32 [Compound 28],G1,0.5 μM,28.18
same,G2/M,0.5 μM,49.02
same,S,0.5 μM,22.80
same,G1,1 μM,25.59
same,G2/M,1 μM,45.20
same,S,1 μM,29.21
same,cell cycle arrest,"colon cancer HCT116 p53−/−, dose-dependent",cell cycle arrest in the S and G2/M phase
